Reference: patent US7781428B2 (Pfizer Inc., priority 2006, dated 2010)
Where a name gives a salt, the structure may show the parent alone.

Biological target: T1, mineralocorticoid receptor (MR) (Homo sapiens, UniProt P08235)
T1 construct: expressed in transfected cells; host or cells: Huh7 (human liver cells)
T1 sequence (P08235 726-964 limits assumed): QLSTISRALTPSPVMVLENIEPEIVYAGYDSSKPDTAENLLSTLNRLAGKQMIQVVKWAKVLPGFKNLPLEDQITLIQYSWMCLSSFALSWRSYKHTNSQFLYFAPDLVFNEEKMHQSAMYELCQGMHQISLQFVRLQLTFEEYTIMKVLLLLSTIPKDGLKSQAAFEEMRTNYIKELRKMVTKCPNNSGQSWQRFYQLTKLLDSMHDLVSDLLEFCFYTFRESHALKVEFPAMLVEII
Assay: Cell-based Gal4 response element-controlled luciferase reporter assay (MR antagonism)
Details: Huh7 human liver cells transfected with Gal4 DBD-MR LBD fusion and luciferase reporter; block of agonist-induced activation; overnight incubation
Text: Method 1: Cell-based Gal4 Response Element-controlled Luciferase Reporter Assay
An in vitro assay can be used to evaluate mineralocorticoid receptor (MR) antagonism by a test compound. […] An agonist of the receptor can bind to and activate the receptor LBD, which activate the expression of the Gal4 response element containing luciferase reporter gene. Antagonists can compete for binding to the receptor LBDs and decrease the transcription activity of the reporter gene. Measurement of luciferase activity allows quantitative determinations of the reporter transcription in the presence of either agonists or agonists and antagonists in combination. β-galactosidase activity, which is unaffected by ligand, is used to normalize the transfection efficiency in the cell population.
Huh7 cells were plated in RPMI1640+10% fetal bovine serum (Invitrogen Corporation, San Diego, Calif.), at 10,000 cells per well in 96-well tissue culture dishes for approximately 24 hours. Cells were then transfected using FuGENE™ 6 Transfection Reagent according to manufacturers' instructions (Roche Molecular Biochemicals, Indianapolis, Ind.). Approximately 20 hours after transfection, media were removed. Cells were washed once with PBS and treated (n=6/group) with agonist for each receptor (all chemicals from Sigma, St. Louis, Mo.), and with compounds. Agonist concentrations represent 70-80% of full activation of each receptor.
Compounds were dissolved in DMSO at 10 mM and diluted to final concentrations in phenol red-free media that contained 10% charcoal- and dextran-stripped serum (Life Technologies, Gathersburg, Md.). Following overnight incubation (18-20 hours) with compounds, the medium was removed and replaced with 100 μL per well of PBS and 100 μL of Steady-Glo™ lysis buffer with luciferase substrate (Promega Corporation, Madison, Wis.). After a 30-minute incubation to completely lyse the cells, 100 μL of the lysate was transferred to a black, Dynatech Microfluor assay plates (Dynex Corporation, Chantilly, Va.) to measure luciferase activity. The plate was sealed with TopSeal self-adhesive film, dark-adapted for 5 minutes, then counted in a TopCount Plate Reader (Packard Instrument Company, Meriden, Conn.) in single photon counting mode. The remaining lysate was used for determination of β-galactosidase activity. In a clear 96-well assay plate, 100 μL of cell lysate was added to 100 μL β-galactosidase assay buffer per well. The assay buffer consisted of 60 mM Na2HPO4, 40 mM NaH2PO4, 10 mM KCl, 1 mM MgSO4, 50 mM β-mercaptoethanol, and 2.5 mg/mL ONPG, the latter two reagents were added just prior to assay (all chemicals from Sigma). The reaction was allowed to proceed until a distinct yellow color developed. Reactions were stopped by the addition of 100 μL per well 1 M Na2CO3 and plates were read at 420 nm in Victor-2 (Perkin Elmer Life Sciences, Boston, Mass.). Values (relative luciferase activity) for each sample were expressed as a ratio of luciferase activity to OD420β-galactosidase activity measured in arbitrary units for each well. […] “b” is the slope, “c” is the IC50 or EC50. “x” is the concentration of the compound and “y” the activity at that concentration.

Row | Structure (SMILES) | IC50 [nM]
1 | Cc1ccc([C@H]2[C@H]3CCc4cc(C(=O)O)ccc4C3=NN2c2ccc(C#N)c(Cl)c2)o1 [Example 40, (3R,3aR)-2-(3-chloro-4-cyanophenyl)-3-(5-methyl-2-furyl)-3,3a,4,5-tetrahydro-2H-benzo[g]indazole-7-carboxylic acid] | 6
2 | N#Cc1ccc(N2N=C3c4ccc(O)cc4CCC3C2c2ccc(F)cc2)cc1 (racemic) [Example 90, (±)-4-((3RS,3aSR)-3-(4-fluorophenyl)-7-hydroxy-3,3a,4,5-tetrahydrobenzo[g]indazol-2-yl)benzonitrile] | 1100
3 | N#Cc1ccc(N2N=C3c4ccc(C(=O)O)cc4CCC3C2C2CCNCC2)cc1Cl (racemic) [Example 38, 2-(3-chloro-4-cyanophenyl)-3-(piperidin-4-yl)-3,3a,4,5-tetrahydro-2H-benzo[g]indazole-7-carboxylic acid trifluoroacetate] | > 1000
4 | CS(=O)(=O)CCNC(=O)c1ccc2c(c1)CCC1C2=NN(c2ccc(C#N)c(Cl)c2)C1c1ccc(F)cc1 (racemic) [Example 96, 2-(3-chloro-4-cyanophenyl)-3-(4-fluorophenyl)-N-(2-(methylsulfonyl)ethyl)-3,3a,4,5-tetrahydro-2H-benzo[g]indazole-7-carboxamide] | 12
5 | COCc1cc(N2N=C3c4ccc(C(=O)O)cc4CCC3C2C2CCCC2)ccc1C#N (racemic) [Example 28, 2-(4-cyano-3-(methoxymethyl)phenyl)-3-cyclopentyl-3,3a,4,5-tetrahydro-2H-benzo[g] indazole-7-carboxylic acid] | 150
6 | N#Cc1ccc(N2N=C3c4ccc(C(=O)O)cc4OC[C@@H]3[C@@H]2C2CCCC2)cc1Cl [Example 65, (3S,3aR)-2-(3-chloro-4-cyanophenyl)-3-cyclopentyl-2,3,3a,4-tetrahydrochromeno[4,3-c]pyrazole-7-carboxylic acid] | 38
7 | N#Cc1ccc(N2N=C3c4ccc(C(=O)O)cc4CC[C@@H]3[C@@H]2c2ccco2)cc1Cl [Example 44, (3R,3aR)-2-(3-chloro-4-cyanophenyl)-3-(2-furyl)-3,3a,4,5-tetrahydro-2H-benzo[g]indazole-7-carboxylic acid] | 16
8 | N#Cc1ccc(N2N=C3c4ccc(C(=O)O)cc4CC[C@H]3[C@H]2c2ccoc2)cc1Cl [Example 48, (3S,3aS)-2-(3-chloro-4-cyanophenyl)-3-(3-furyl)-3,3a,4,5-tetrahydro-2H-benzo[g]indazole-7-carboxylic acid] | > 1000
9 | N#Cc1ccc(N2N=C3c4ccc(C(=O)O)cc4CCC3C2C2CCOCC2)cc1 (racemic) [Example 37, 2-(4-cyanophenyl)-3-(tetrahydro-2H-pyran-4-yl)-3,3a,4,5-tetrahydro-2H-benzo[g]indazole-7-carboxylic acid] | > 1000
10 | N#Cc1ccc(N2N=C3c4ccc(C(=O)O)cc4CCC3C2c2ccc(F)cc2)cc1Cl (racemic) [Example 2, 2-(3-chloro-4-cyanophenyl)-3-(4-fluorophenyl)-3,3a,4,5-tetrahydro-2H-benzo[g]indazole-7-carboxylic acid] | 223
11 | N#Cc1ccc(N2N=C3c4ccc(C(=O)O)cc4CCC3C2c2ccc(F)cc2)cc1 (racemic) [Example 10, 2-(4-cyanophenyl)-3-(4-fluorophenyl)-3,3a,4,5-tetrahydro-2H-benzo[g]indazole-7-carboxylic acid] | 553
12 | N#Cc1ccc(N2N=C3c4ccc(C(=O)O)cc4CC[C@H]3[C@H]2c2ccc(F)cc2)cc1 [Example 12, (3S,3aS)-2-(4-cyanophenyl)-3-(4-fluorophenyl)-3,3a,4,5-tetrahydro-2H-benzo[g]indazole-7-carboxylic acid] | > 10000
13 | Cc1cc(N2N=C3c4ccc(C(=O)O)cc4CCC3C2C2CCCC2)ccc1C#N (racemic) [Example 21, 2-(4-cyano-3-methylphenyl)-3-cyclopentyl-3,3a,4,5-tetrahydro-2H-benzo[g]indazole-7-carboxylic acid] | 4
14 | N#Cc1ccc(N2N=C3c4ccc(C(=O)O)cc4CC[C@H]3[C@H]2C2CCCC2)cc1 [Example 20, (3R,3aS)-2-(4-cyanophenyl)-3-cyclopentyl-3,3a,4,5-tetrahydro-2H-benzo[g]indazole-7-carboxylic acid] | 2880
15 | Cc1ncc(C2C3CCc4cc(C(=O)NCCS(C)(=O)=O)ccc4C3=NN2c2ccc(C#N)c(Cl)c2)s1 (stereo not shown) [Example 118, 2-(3-chloro-4-cyanophenyl)-N-[2-(methylsulfonyl)ethyl]-3-(2-methyl-1,3-thiazol-5-yl)-3,3a,4,5-tetrahydro-2H-benzo[g]indazole-7-carboxamide] | 19
16 | N#Cc1ccc(N2N=C3c4ccc(C(=O)O)cc4OCC3C2c2ccc(F)cc2)cc1Cl (racemic) [Example 55, 2-(3-chloro-4-cyanophenyl)-3-(4-fluorophenyl)-2,3,3a,4-tetrahydrochromeno[4,3-c]pyrazole-7-carboxylic acid] | 849
17 | N#Cc1ccc(N2N=C3c4cc(C(=O)NCCN5CCCC5)ccc4CC[C@@H]3[C@@H]2c2ccc(F)cc2)cc1Cl (racemic) [Example 112, (±)-(3RS13aRS)-2-(3-chloro-4-cyanophenyl)-3-(4-fluorophenyl)-N-(2-(pyrrolidin-1-yl)ethyl)-3,3a,4,5-tetrahydro-2H-benzo[g]indazole-8-carboxamide] | 1550
18 | N#Cc1ccc(N2N=C3c4ccc(OS(=O)(=O)C(F)(F)F)cc4OCC3C2c2ccc(F)cc2)cc1Cl (racemic) [Example 92, 2-(3-chloro-4-cyanophenyl)-3-(4-fluorophenyl)-2,3,3a,4-tetrahydrochromeno[4,3-c]pyrazol-7-yl trifluoromethanesulfonate] | > 1000
19 | C[S+]([O-])CCNC(=O)c1ccc2c(c1)CC[C@@H]1C2=NN(c2ccc(C#N)c(Cl)c2)[C@H]1c1ccc(F)cc1 (mixture of isomers) [Example 98, (±)-(3RS,3aSR)-2-(3-chloro-4-cyanophenyl)-3-(4-fluorophenyl)-N-(2-(methylsulfinyl)ethyl)-3,3a,4,5-tetrahydro-2H-benzo[g]indazole-7-carboxamide] | 13
20 | Cc1cc(N2N=C3c4ccc(C(=O)O)cc4CCC3C2c2ccc(F)cc2)ccc1C#N (racemic) [Example 6, 2-(4-cyano-3-methylphenyl)-3-(4-fluorophenyl)-3,3a,4,5-tetrahydro-2H-benzo[g]indazole-7-carboxylic acid] | 81
21 | N#Cc1ccc(N2N=C3c4ccc(O)cc4CCC3C2c2ccc(F)cc2)cc1Cl (racemic) [Example 86, 2-chloro-4-(-3-(4-fluorophenyl)-7-hydroxy-3,3a,4,5-tetrahydrobenzo[g]indazol-2-yl)benzonitrile] | 86
22 | N#Cc1ccc(N2N=C3c4ccc(C(=O)O)cc4OCC3C2c2ccc(F)cc2)cc1 (racemic) [Example 58, 2-(4-cyanophenyl)-3-(4-fluorophenyl)-2,3,3a,4-tetrahydrochromeno[4,3-c]pyrazole-7-carboxylic acid] | 3180
23 | CS(=O)(=O)CCNC(=O)c1ccc2c(c1)CC[C@H]1C2=NN(c2ccc(C#N)c(Cl)c2)[C@H]1c1ccc(F)cc1 [Example 95, (3R,3aR)-2-(3-chloro-4-cyanophenyl)-3-(4-fluorophenyl)-N-(2-(methylsulfonyl)ethyl)-3,3a,4,5-tetrahydro-2H-benzo[g]indazole-7-carboxamide] | 2
24 | Cc1cc(N2N=C3c4ccc(C(=O)O)cc4CC[C@H]3[C@H]2c2ccc(F)cc2)ccc1C#N [Example 8, (3S,3aS)-2-(4-cyano-3-methylphenyl)-3-(4-fluorophenyl)-3,3a,4,5-tetrahydro-2H-benzo[g]indazole-7-carboxylic acid] | 2740
25 | COc1cc(N2N=C3c4ccc(C(=O)O)cc4CCC3C2C2CCCC2)ccc1C#N (racemic) [Example 25, 2-(4-cyano-3-methoxyphenyl)-3-cyclopentyl-3,3a,4,5-tetrahydro-2H-benzo[g]indazole-7-carboxylic acid] | 7
